Experimental data from US9353104B2, “Substituted pyridizinone derivatives as PDE10 inhibitors” (priority 2013, dated 2016).

Target: human PDE10A2 (Homo sapiens (Human), UniProt Q9Y233)
Assay: PDE10 fluorescence polarization (IMAP FP) inhibition assay
Format: biochemical
Details: human PDE10A2 lysate, FAM-labeled cAMP 50 nM, room temperature; read-out: PDE10A Ki
Procedure: The activity of the compounds in accordance with the present invention as PDE10 inhibitors may be readily determined without undue experimentation using a fluorescence polarization (FP) methodology that is well known in the art (Huang, W., et al., J. Biomol Screen, 2002, 7: 215). […] In a typical experiment the PDE10 inhibitory activity of the compounds of the present invention was determined in accordance with the following experimental method. PDE10A2 was amplified from human fetal brain cDNA (Clontech, Mountain View, Calif.) using a forward primer corresponding to nucleotides 56-77 of human PDE10A2 (Accession No. AF127480, Genbank Identifier 4894716), containing a Kozak consensus sequence, and a reverse primer corresponding to nucleotides 2406-2413 of human PDE10A2 (Accession No. AF127480, Genbank Identifier 4894716). Amplification with Easy-A polymerase (Stratagene, La Jolla, Calif.) was 95° C. for 2 minutes followed by thirty three cycles of 95° C. for 40 seconds, 55° C. for 30 seconds, and 72° C. for 2 minutes 48 seconds. Final extension was 72° C. for 7 minutes. The PCR product was TA cloned into pcDNA3.2-TOPO (Invitrogen, Carlsbad, Calif.) according to standard protocol. AD293 cells with 70-80% confluency were transiently transfected with human PDE10A2/pcDNA3.2-TOPO using Lipofectamine 2000 according to manufacturer specifications (Invitrogen, Carlsbad, Calif.). Cells were harvested 48 hours post-transfection and lysed by sonication (setting 3, 10×5 sec pulses) in a buffer containing 20 mM HEPES, 1 mM EDTA and protease inhibitor cocktail (Roche). Lysate was collected by centrifugation at 75,000×g for 20 minutes. Supernatant containing the cytoplasmic fraction was used for evaluation of PDE10A2 activity. The fluorescence polarization assay for cyclic nucleotide phosphodiesterases was performed using an IMAP® FP kit supplied by Molecular Devices, Sunnyvale, Calif. (product #R8139). IMAP® technology has been applied previously to phosphodiesterase assays (Huang, W., et al., J. Biomol Screen, 2002, 7: 215). Assays were performed at room temperature in 384-well microtiter plates with an incubation volume of 20.2 μL. Solutions of test compounds were prepared in DMSO and serially diluted with DMSO to yield 8 μL of each of 10 solutions differing by 3-fold in concentration, at 32 serial dilutions per plate. 100% inhibition is determined using a known PDE10 inhibitor, which can be any compound that is present at 5,000 times its Ki value in the assay described as follows, such as papaverine (see Siuciak, et al. Neuropharmacology (2006) 51:386-396; Becker, et al. Behav Brain Res (2008) 186(2):155-60; Threlfell, et al., J Pharmacol Exp Ther (2009) 328(3):785-795), 2-{4-[pyridin-4-yl-1-(2,2,2-trifluoroethyl)-1H-pyrazol-3-yl]phenoxymethyl}quinoline succinic acid or 2-[4-(1-methyl-4-pyridin-4-yl-1H-pyrazol-3-yl)-phenoxymethyl]quinoline succinic acid (see Schmidt, et al. J Pharmacol Exp Ther (2008) 325:681-690; Threlfell, et al., J Pharmacol Exp Ther (2009) 328(3): 785-795). 0% of inhibition is determined by using DMSO (1% final concentrations).
A Labcyte Echo 555 (Labcyte, Sunnyvale, Calif.) is used to dispense 200 nL from each well of the titration plate to the 384 well assay plate. A solution of enzyme (1/1600 dilution from aliquots; sufficient to produce 20% substrate conversion) and a separate solution of FAM-labeled cAMP PDE from Molecular Devices (product #R7506), at a final concentration of 50 nM are made in the assay buffer (10 mM Tris HCl, pH 7.2, 10 mM MgCl2, 0.05% NaN3 0.01% Tween-20, and 1 mM DTT). The enzyme and the substrate are then added to the assay plates in two consecutive additions of 10 μL, and then shaken to mix. The reaction is allowed to proceed at room temperature for 30 minutes. A binding solution is then made from the kit components, comprised of 80% Solution A, 20% Solution B and binding reagent at a volume of 1/600 the total binding solution.

Chain of human PDE10A2 (Q9Y233 267-1055): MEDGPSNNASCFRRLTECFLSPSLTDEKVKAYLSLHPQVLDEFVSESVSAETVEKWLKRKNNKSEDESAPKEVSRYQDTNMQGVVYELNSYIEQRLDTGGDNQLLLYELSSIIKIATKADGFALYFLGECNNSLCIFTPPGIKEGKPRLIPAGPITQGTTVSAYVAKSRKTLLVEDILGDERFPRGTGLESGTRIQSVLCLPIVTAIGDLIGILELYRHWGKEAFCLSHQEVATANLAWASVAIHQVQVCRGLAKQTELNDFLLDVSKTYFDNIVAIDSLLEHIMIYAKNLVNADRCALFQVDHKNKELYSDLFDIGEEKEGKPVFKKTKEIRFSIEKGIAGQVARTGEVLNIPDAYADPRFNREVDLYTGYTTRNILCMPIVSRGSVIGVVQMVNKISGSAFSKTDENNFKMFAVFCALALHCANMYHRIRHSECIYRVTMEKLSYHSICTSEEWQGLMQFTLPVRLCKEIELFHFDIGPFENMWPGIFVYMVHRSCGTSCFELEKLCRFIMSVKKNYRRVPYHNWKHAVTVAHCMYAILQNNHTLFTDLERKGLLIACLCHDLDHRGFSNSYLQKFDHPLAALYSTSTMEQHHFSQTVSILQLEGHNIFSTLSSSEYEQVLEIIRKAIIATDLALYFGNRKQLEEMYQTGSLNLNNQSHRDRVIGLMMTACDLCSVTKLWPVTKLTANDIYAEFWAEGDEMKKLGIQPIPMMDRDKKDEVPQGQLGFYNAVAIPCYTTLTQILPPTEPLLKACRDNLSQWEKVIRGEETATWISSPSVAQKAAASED

Row | Ki [nM] | SMILES
1 | 0.001 | Cc1cc(CNc2cc(OC[C@H]3C[C@@H]3c3ccc4c(n3)CCC4)nn(C)c2=O)n(C)n1 [Example 121, 6-(((1S,2S)-2-(6,7-dihydro-5H-cyclopenta-[b]pyridin-2-yl)cyclop-ropyl)methoxy)-4-((1,3-dimethyl-1H-pyrazol-5-yl)methylamino)-2-methylpyridazin-3(2H)one]
2 | 0.003 | Cc1ccc([C@H]2C[C@@H]2COc2cc(NCc3cc(C)nn3C)c(=O)n(C)n2)nc1 [Example 14, 4-((1,3-dimethyl-1H-pyrazol-5-yl)methylamino-)-2-methyl-6-(((1S,2S)-2-(5-methylpyridin-2-yl)cyclopropyl)methoxy)-pyridazin-3(2H)-one]
3 | 0.046 | Cc1cc(CNc2cc(OC[C@H]3C[C@@H]3c3ccc(OC(F)F)cn3)nn(C)c2=O)n(C)n1 [Example 28, 6-(((1S,2S)-2-(5-(difluoro-methoxy)pyridin-2-yl)-cyclopropyl)-methoxy)-4-((1,3-dimethyl-1H-pyrazol-5-yl)methyl-amino)-2-methylpyridazin-3(2H)one]
4 | 0.008 | COc1ccc([C@H]2C[C@@H]2COc2cc(NCc3cc(C)no3)c(=O)n(C)n2)nc1 [Example 89, 6-(((1S,2S)-2-(5-methoxypyridin-2-yl)cyclopropyl)methoxy)-2-methyl-4-(((3-methylisoxazol-5-yl)methyl)amino)pyridazin-3(2H)-one]
5 | 0.192 | COc1ccc([C@H]2C[C@@H]2COc2cc(NCc3ccnn3C)c(=O)n(C)n2)nc1 [Example 100, 6-(((1S,2S)-2-(5-methoxypyridin-2-yl)-cyclopropyl)methoxy)-2-methyl-4-(((1-methyl-1H-pyrazol-5-yl)methyl)-amino)pyridazin-3(2H)one]
6 | 0.019 | Cc1ccc(CNc2cc(OC[C@H]3C[C@@H]3c3ccc(Cl)cn3)nn(C)c2=O)c(C)n1 [Example 54]
7 | 9.89 | Cc1ccc([C@H]2C[C@@H]2COc2cc(NCc3nc(C)cs3)c(=O)n(C)n2)nc1 [Example 12, 2-methyl-6-(((1S,2S)-2-(5-methylpyridin-2-yl)cyclo-propyl)methoxy)-4-((4-methylthiazol-2-yl)methyl-amino)pyridazin-3(2H)one]
8 | 0.039 | COc1ccc([C@H]2C[C@@H]2COc2cc(NCc3ccc(C)nn3)c(=O)n(C)n2)nc1 [Example 76, 6-(((1S,2S)-2-(5-methoxy-pyridin-2-yl)cyclopropyl-)-methoxy)-2-methyl-4-(((6-methylpyridazin-3-yl)methyl)amino)pyridazin-3(2H)-one]
9 | 75 | COc1ccc([C@H]2C[C@@H]2COc2cc(NC(=O)c3cnn(C)c3Cl)c(=O)n(C)n2)nc1 [Example 95, 5-chloro-N-(6-(((1S,2S)-2-(5-methoxypyridin-2-yl)-cyclopropyl)methoxy)-2-methyl-3-oxo-2,3-dihydro-pyridazin-4-yl)-1-methyl-1Hpyrazole-4carboxamide]
10 | 75 | COc1ccc(Cn2nc(OC[C@H]3C[C@@H]3c3ccc(OC)cn3)cc(NCc3nnc(C)s3)c2=O)cc1 [Example 142, 2-(4-methoxybenzyl)-6-(((1S,2S)-2-(5-methoxy-pyridin-2-yl)cyclopropyl-)methoxy)-4-((5-methyl-1,3,4-thiadiazol-2-yl)methyl-amino)pyridazin-3(2H)-one]
11 | 0.911 | Cc1nnc(CN(C)c2cc(OC[C@H]3C[C@@H]3c3ccc4ccccc4n3)nn(C)c2=O)s1 [Example 36, 2-methyl-4-(methyl((5-methyl-1,3,4-thiadiazol-2-yl)methyl)amino)-6-(((1S,2S)-2-(quinolin-2-yl)cyclopropyl)methoxy)-pyridazin-3(2H)-one]
12 | 0.023 | Cc1ccc(CNc2cc(OC[C@H]3C[C@@H]3c3ccn(C)n3)nn(C)c2=O)c(C)n1 [Example 51, 4-(((2,6-dimethylpyridin-3-yl)methyl)amino)-2-methyl-6-(((1S,2S)-2-(1-methyl-1H-pyrazol-3-yl)cyclopropyl)methoxy)-pyridazin-3(2H)-one]
13 | 0.014 | COc1ccc([C@H]2C[C@@H]2COc2cc(NCc3cnn(C)c3)c(=O)n(C)n2)nc1 [Example 131, 6-(((1S,2S)-2-(5-methoxy-pyridin-2-yl)cyclopropyl-)methoxy)-2-methyl-4-((1-methyl-1H-pyrazol-4-yl)methylamino)pyridazin-3(2H)-one]
14 | 0.009 | COc1ccc([C@H]2C[C@@H]2COc2cc(NCc3cn(C)nc3C)c(=O)n(C)n2)nc1 [Example 37, 4-((1,3-dimethyl-1H-pyrazol-4-yl)methyl-amino)-6-(((1S,2S)-2-(5-methoxypyridin-2-yl)cyclopropyl)methoxy)-2-methylpyridazin-3(2H)-one]
15 | 0.019 | COc1ccc([C@H]2C[C@@H]2COc2cc(NCc3ccc(C)cn3)c(=O)n(C)n2)nc1 [Example 72, 6-(((1S,2S)-2-(5-methoxy-pyridin-2-yl)cyclopropyl-)-methoxy)-2-methyl-4-(((5-methylpyridin-2-yl)-methyl)amino)pyridazin-3(2H)-one]
16 | 4.1 | Cc1noc(C)c1CNc1cc(OC[C@H]2C[C@@H]2c2ccn(C)n2)nn(C)c1=O [Example 61, 4-(((3,5-dimethylisoxazol-4-yl)methyl)amino)-2-methyl-6-(((1S,2S)-2-(1-methyl-1H-pyrazol-3-yl)cyclopropyl)methoxy)-pyridazin-3(2H)-one]
17 | 2.8 | COc1ccc([C@H]2C[C@@H]2COc2cc(NCc3nc(C)nn3C)c(=O)n(C)n2)nc1 [Example 88, 4-(((1,3-dimethyl-1H-1,2,4-triazol-5-yl)methyl)amino)-6-(((1S,2S)-2-(5-methoxypyridin-2-yl)cyclopropyl)methoxy)-2-methylpyridazin-3(2H)-one]
18 | 5.3 | COc1ccc([C@H]2C[C@@H]2COc2cc(NCc3ccc(F)c(C)n3)c(=O)n(C)n2)nc1 [Example 74, 4-(((5-fluoro-6-methyl-pyridin2yl)methyl)amino)-6-(((1S,2S)-2-(5-methoxy-pyridin-2-yl)cyclopropyl-)-methoxy)-2-methyl-pyridazin-3(2H)-one]
19 | 0.025 | COc1ccc([C@H]2C[C@@H]2COc2cc(NCc3ccc(C)nc3)c(=O)n(C)n2)nc1 [Example 64, 6-(((1S,2S)-2-(5-methoxy-pyridin-2-yl)cyclopropyl-)-methoxy)-2-methyl-4-(((6-methylpyridin-3-yl)methyl)amino)pyridazin-3(2H)-one]
20 | 75 | Cc1cc(C(=O)Nc2cc(OC[C@H]3C[C@@H]3c3ccn(C)n3)nn(C)c2=O)n(C)n1 [Example 103, 1,3-dimethyl-N-(2-methyl-6-(((1S,2S)-2-(1-methyl-1H-pyrazol-3-yl)cyclopropyl)methoxy)-3-oxo-2,3-dihydropyridazin-4-yl)-1H-pyrazole-5-carboxamide]
21 | 75 | COc1ccc([C@H]2C[C@@H]2COc2cc(NC(=O)c3cc(C)nn3C)c(=O)n(C)n2)nc1 [Example 101, N-(6-(((1S,2S)-2-(5-methoxypyridin-2-yl)-cyclopropyl)methoxy)-2-methyl-3-oxo-2,3-dihydropyridazin-4-yl)-1,3-dimethyl-1H-pyrazole-5-carboxamide]

Row | SMILES | Ki [nM]
22 | COc1ccc([C@H]2C[C@@H]2COc2cc(NCc3cccnc3)c(=O)n(C)n2)nc1 [Example 135, 6-(((1S,2S)-2-(5-methoxy-pyridin-2-yl)cyclopropyl-)methoxy)-2-methyl-4-(pyridin-3-ylmethylamino-)pyridazin-3(2H)-one] | 0.261
